The values that follow come from ChEMBL document CHEMBL1144289, “A convenient one-pot synthesis of asymmetric 1,3,5-triazine-2,4,6-triones and its application towards a novel class of gonadotropin-releasing hormone receptor antagonists” (Bioorg Med Chem Lett, 2005).

The experiment has as its target T1, Gonadotropin-releasing hormone receptor (Homo sapiens, UniProt P30968).
T1 sequence (P30968 whole entry): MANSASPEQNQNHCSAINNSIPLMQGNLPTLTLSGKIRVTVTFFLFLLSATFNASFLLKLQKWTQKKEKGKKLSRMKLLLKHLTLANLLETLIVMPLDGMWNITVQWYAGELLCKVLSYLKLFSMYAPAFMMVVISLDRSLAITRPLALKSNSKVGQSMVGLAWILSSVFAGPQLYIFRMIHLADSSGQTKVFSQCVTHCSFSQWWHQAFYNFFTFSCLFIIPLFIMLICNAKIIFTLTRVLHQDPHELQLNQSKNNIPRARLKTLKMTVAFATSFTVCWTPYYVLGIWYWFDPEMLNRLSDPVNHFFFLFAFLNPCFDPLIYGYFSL
The experiment can be described thus: Inhibitory constant against cloned human Gonadotropin-releasing hormone receptor stably expressed in HEK293 cells was determined. It is filed as cell-based.
Turning to `COc1cccc(-n2c(=O)n(CCN(C)CCc3ccccn3)c(=O)n(Cc3c(F)cccc3F)c2=O)c1`, the Ki amounted to 4200 nM. Take `NC(Cc1c[nH]c2ccccc12)Cn1c(=O)n(Cc2c(F)cccc2F)c(=O)n(-c2c(F)cccc2F)c1=O` (centres undefined): the affinity corresponds to a Ki of 380 nM. With `COc1cccc(-c2c(C)n(CCN(C)CCc3ccccn3)c(=O)n(Cc3c(F)cccc3F)c2=O)c1`, the Ki is over 20000 nM. Take `N[C@@H](Cn1c(=O)n(Cc2c(F)cccc2F)c(=O)n(-c2c(F)cccc2F)c1=O)c1ccccc1`: the affinity corresponds to a Ki of 220 nM. `COc1cccc(-c2c(C)n(Cc3c(F)cccc3F)c(=O)n(C[C@@H](C)N(C)CCc3ccccn3)c2=O)c1` displayed a Ki of 1.1 nM. Regarding `N[C@@H](Cn1c(=O)n(Cc2c(F)cccc2F)c(=O)n(-c2ccc3nsnc3c2)c1=O)c1ccccc1`, the inhibition constant Ki was determined as 410 nM. Molecule `N[C@@H](Cn1c(=O)n(Cc2c(F)cccc2F)c(=O)n(-c2ccccc2F)c1=O)c1ccccc1` returned an inhibition constant Ki of 89 nM. The molecule `COc1cccc(-n2c(=O)n(Cc3c(F)cccc3F)c(=O)n(C[C@H](N)c3ccccc3)c2=O)c1` gave a Ki of 37 nM. For the molecule `COc1cccc(-n2c(=O)n(Cc3c(F)cccc3F)c(=O)n(CC(N)c3ccccc3)c2=O)c1` (centres undefined), the affinity, expressed as Ki, was 120 nM.

What is called Ki is the equilibrium dissociation constant of an inhibitor or competing ligand from its target.
